# According to patent US20170028016A1, “METHODS OF TREATMENT OF C. DIFFICILE SPORES WITH RAMOPLANIN” (Nanotherapeutics, Inc., priority 2014, published 2017):
# Entries after “also recorded” stand apart in the source; their conditions may differ.
# What was measured:
# [1] = tested on: C. difficile spores (ribotype 027); assay: Antimicrobial survey: continuous exposure of spores in water for six days, spore counts by plating; details: 37 °C, D0-D6
# [2] = tested on: C. difficile spores (ribotype 027), exosporium; assay: Dependency of activity on exosporium: intact versus stripped (processed) spores exposed to ramoplanin; assay type: cell-based, Clostridium difficile
# Procedure: C. difficile (027) exposure (30 min/37 C) to multiple doses of ramoplanin and to water was evaluated. Following ramoplanin exposure for 30 minutes, sampling occurred at days D0, D1, D7, D14, and D28. Without wishing to be bound by any particular theory, sampling over time may characterize the duration of effect having clinical implication on the duration of oral therapy. From each level at each time point, three aliquots were taken (i.e. n=3 for each subsequent assay) and each washed 6 times before the spore re-suspension. Each wash (100 only) and spore suspension (100, 10-1 10-2) were counted on NaTBA and assayed for ramoplanin by a zone of inhibition assay using S. salivarius.
# From this example, it appears that the absence of a spore exosporium diminishes the bactericidal effect of Ramoplanin. Following enzyme digest and sonication of spore prep (Cortes et. al.) to removal the exosporium, the spores were exposed (027) to single dose of Ramoplanin (600 mcg/mL) vs water for 30 min and sampled (supernatant and prep) at 1 time point (T0).
# Spore exosporia were removed as described by Escobar-Cortes et al. 2013. Proteases and sonication specifically remove the exosporium layer of spores of C. difficile strain 630. […] Briefly, spores were washed four times by centrifugation (10 minutes at 10,000×g) and resuspended in deionized water followed by final resuspension in 15 mL of PBS and sonicated for 90 seconds. Three mL of 10% Sarkosyl (detergent) were added to each preparation and subsequently incubated 15 minutes at room temperature with rocking. Preparations were then centrifuged for 10 minutes at 10,000×g, and pellets were resuspended in 10 mL PBS with 0.1 mL of 1M Tris and 10 mg of lysozyme. Spores were rocked overnight at 37±2° C. and then sonicated for 90 seconds, passed through a 50% solution of sucrose using a swinging bucket rotor for 20 minutes at 4,000×g, and resuspended in a solution containing 3 mL PBS, 200 mM EDTA, 300 ng/mL Proteinase K and 1% Sarkosyl. The spores were further rocked at room temperature for 20 minutes and were passed through a 50% solution of sucrose as previously described by Sabja et al, Id. Next, the spores were washed in deionized water by two centrifugation steps for 10 minutes at 10,000×g and resuspended in deionized water; plating and incubation were carried out as described in the foregoing text.
# Adherence of ramoplanin to C. difficile exosporium: In order to determine whether the exosporium was essential to the observed growth-inhibiting effects of ramoplanin, the exosporia were processed as described in Escobar-Cortes et al, 2013, resulting in spores with “stripped” exosporia, and then compared to unprocessed spores (with “intact” exosporia) under three separate conditions (all ramoplanin concentrations were 300 μg/mL): (1) ramoplanin exposure with no subsequent spore processing (i.e., “intact”), (2) ramoplanin exposure with subsequent spore processing (i.e., “stripped”), and (3) water exposure with subsequent spore processing (FIG. 6). […] After ramoplanin exposure, the difference in spore counts between samples that were not processed (with presumed intact exposporia) and samples that were processed (without presumed exposporia) was significant (p<0.0001). No difference in spore count was noted when comparing processed spores that had been exposed to ramoplanin to spores exposed only to water (p=0.389).
# [3] = tested on: C. difficile spores (ribotype 027); assay: Dose-dependent sporicidal assay: spores exposed to ramoplanin, washed 6 times, plated on NaTBA; assay type: cell-based, Clostridium difficile
# Procedure: C. difficile exposure at three levels of ramoplanin (2, 300, 600 μg/mL) and to water was evaluated. […] The wash supernatant fluids (n=6/level) and the final spore suspensions (n=1/level) were counted by plating three 10-fold serial dilutions on NaTaurocholate Blood Agar (NaTBA). Each set of three counts were averaged and compared by t-test.
# [4] = tested on: C. difficile spores (ribotype 027); assay: Longevity / persistence assay: 30 min ramoplanin exposure, six washes, storage in water to day 28, spore counts; assay type: cell-based, Clostridium difficile; details: for spore growth when plated undiluted: to day 28
# Procedure: As above, C. difficile (027) was exposed to multiple doses of Ramoplanin (30 min/37 C) and to water, stored at 37 C (anaerobic), and sampled at days D0, D1 D7, D14, and D28. […] From each level at each time, three aliquots were taken (i.e. n=3 for each subsequent assay) and each washed 6 times before the spore resuspension. Each wash (100 only) and spore suspension (100, 10-1 10-2) were counted on NaTBA.
compound,measurement,setting,value
Cc1ncc([N+](=O)[O-])n1CCO [metronidazole],"spore counts on continuous exposure, compared to baseline",[1]; metronidazole 10 μg/mL,did not significantly reduce spore counts
CN[C@H](CC(C)C)C(=O)N[C@H]1C(=O)N[C@@H](CC(N)=O)C(=O)N[C@H]2C(=O)N[C@H]3C(=O)N[C@H](C(=O)N[C@H](C(=O)O)c4cc(O)cc(O)c4-c4cc3ccc4O)[C@H](O)c3ccc(c(Cl)c3)Oc3cc2cc(c3O[C@@H]2O[C@H](CO)[C@@H](O)[C@H](O)[C@H]2O[C@H]2C[C@](C)(N)[C@H](O)[C@H](C)O2)Oc2ccc(cc2Cl)[C@H]1O [vancomycin],"spore counts on continuous exposure, compared to baseline",[1]; vancomycin 500 μg/mL,did not significantly reduce spore counts
ramoplanin,growth-inhibitory effect when exosporia were removed before or after exposure,[2]; after multiple washes,not present
same,"spore counts, spores processed after exposure (stripped exosporia)","[2]; ramoplanin 300 μg/mL, exosporia removed after exposure",counts equivalent to water exposure
same,"spore growth, unprocessed spores (intact exosporia)","[2]; ramoplanin 300 μg/mL, no subsequent spore processing",no measurable counts; also recorded: no growth
same,"C. difficile recovery, spores stripped of the exosporium","[2]; ramoplanin 600 μg/mL, 30 min",high organism recovery
same,"C. difficile recovery, spores with intact exosporium","[2]; ramoplanin 600 μg/mL, 30 min",non-recoverable C. difficile
same,persistence of bactericidal effect after washes,[3]; multiple washes (×6),effect persists after multiple washes
same,exposure time giving maximal effect,[3]; no apparent difference in effect vs. time,30 min
same,viability of ramoplanin-exposed spores when plated,"[3]; ramoplanin 300 μg/mL (below fecal level), ribotype 027",non-viable
same,organism recovery from 30 min after exposure and wash through day 28,"[4]; 30 min/37 C exposure, 6 washes, stored at 37 C anaerobic",no organisms are recoverable
same,inhibition of spore growth relative to controls,"[4]; ramoplanin 2 μg/mL, 30 min exposure, over 28 days",no inhibition relative to controls
same,mean spore counts ±SEM over 28 days,"[4]; ramoplanin 2 μg/mL, 30 min exposure, six washes",2.3×10^4±4.6×10^2
same,spore counts after diluting samples 10×,"[4]; ramoplanin 300 μg/mL and 600 μg/mL, 30 min exposure",growth not measurable at previous dilution; also recorded: spore counts similar to the 0 and 2 μg/mL exposed spores
same,spore growth when plated undiluted,"[4]; ramoplanin 300 μg/mL, 30 min exposure, six washes",no counts; also recorded: no growth
same,spore growth when plated undiluted,"[4]; ramoplanin 600 μg/mL, 30 min exposure, six washes",no counts; also recorded: no growth
same,spore counts on continuous exposure,[1]; ramoplanin 300 μg/mL,no counts; also recorded: no growth
